Data reported in US7491729B2, “3-Substituted 3,4-dihydro-thieno[2,3-d]pyrimidin-4-one derivatives, production and use thereof” (Abbott GmbH & Co. KG, priority 2002, dated 2009).

Experiments:
5-HT1A receptors = biological target: T1, 5-HT1A receptors (Homo sapiens, UniProt P08908); assay: Receptor binding studies, displacement of (3H)-8-OH-DPAT on membranes of HEK293 cells expressing 5-HT1A receptors; settings: 0.2 nM (3H)-8-OH-DPAT, 22° C.
T1 construct: expressed in transfected cells; host or cells: HEK293
T1 sequence (P08908 1-422): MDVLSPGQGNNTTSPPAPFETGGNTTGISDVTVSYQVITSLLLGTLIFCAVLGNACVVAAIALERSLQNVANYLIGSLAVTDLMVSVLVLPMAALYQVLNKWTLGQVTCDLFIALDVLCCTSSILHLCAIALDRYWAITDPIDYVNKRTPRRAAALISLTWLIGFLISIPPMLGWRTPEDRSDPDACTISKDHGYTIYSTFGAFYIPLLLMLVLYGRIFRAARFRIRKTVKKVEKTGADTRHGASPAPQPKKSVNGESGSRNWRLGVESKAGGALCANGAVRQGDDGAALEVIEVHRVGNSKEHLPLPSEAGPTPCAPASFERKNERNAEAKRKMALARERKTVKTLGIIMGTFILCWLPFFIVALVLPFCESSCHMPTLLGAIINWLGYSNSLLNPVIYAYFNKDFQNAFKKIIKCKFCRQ
Experimental: (§1) HEK293 cells which expressed 5-HT1A or 5-HT1B receptors were cultivated in RPMI 1640 (Life Technologies, Eggenstein, Germany) comprising 10% fetal calf serum. All the culture media were supplemented with 2 mM L-glutamine and 400 mg/l Geneticin G418 (Life Technologies). The cells were grown in a moist atmosphere with 6% CO2 at 37° C. and detached with a buffer comprising 0.0004% EDTA, 0.02% EGTA, 2.68 mM KCl, 1.47 mM KH2PO4, 6.46 mM Na2HPO4 and 136.9 mM NaCl (pH 7.4). The harvested cells were washed once with cold phosphate-buffered Dulbecco's saline solution (PBS), centrifuged (200×g; 10 minutes) and adjusted to a cell density of 10^8 cells per cryovial. After renewed centrifugation, the pellets were resuspended in 1 ml of ice-cold dissolving buffer (5 mM Tris/HCl (pH 7.4), 10% glycerol) and incubated at 4° C. for 30 minutes. The suspension was then centrifuged at 900×g for 10 minutes, the supernatants were removed, and the pellets were stored in liquid nitrogen until used.
(§2) Initially, the affinities of the radio ligands ((^3H)-8-OH-DPAT for 5-HT1A receptors; or (^3H)-5-CT for 5-HT1B receptors) were calculated from saturation plots where triplicate determinations of the specific and nonspecific binding were carried out for each test concentration. Each sample was composed of 50 μg of cellular proteins of the particular membrane preparation, the radio ligand with or without competing compound (5-HT) in a total volume of 0.5 ml. A buffer consisting of 50 mM Tris/HCl (pH 7.4) and 5 mM CaCl2 was used. Incubation was at 22° C. for 9 minutes.
(§3) For Ki determinations, the test compounds were titrated three times in displacement experiments against a fixed concentration of radio ligand ((0.2 nM (^3H)-8-OH-DPAT; or 0.2 nM (^3H)-5-CT). The other test conditions corresponded to those described for the saturation experiments. The total and the nonspecific binding (10 μM 5-HT as competitor of 5-HT1A and 100 μM for 5-HT1B) was determined for each experimental series.
(§4) The incubation for binding and displacement was terminated by filtering and washing the samples on glass fiber filters (GF/B) using a Skatron 7200 cell harvester (Zinsser, Frankfurt, Germany). The sample filters were transferred into scintillation vials comprising 5 ml of scintillator (Ultima Gold XR) and agitated for 1 hour, and then measured in a liquid scintillation counter. Saturation and competition plots were calculated with the aid of a computer program based on LIGAND (Mundson, P J and Reodbard, D; Anal. Biochem. 107, 220 (1980)).

5-HT1B receptors = biological target: T2, 5-HT1B receptors (Homo sapiens, UniProt P28222); assay: Receptor binding studies, displacement of (3H)-5-CT on membranes of HEK293 cells expressing 5-HT1B receptors; settings: 0.2 nM (3H)-5-CT, 22° C.
T2 construct: expressed in transfected cells; host or cells: HEK293
T2 sequence (P28222 whole entry): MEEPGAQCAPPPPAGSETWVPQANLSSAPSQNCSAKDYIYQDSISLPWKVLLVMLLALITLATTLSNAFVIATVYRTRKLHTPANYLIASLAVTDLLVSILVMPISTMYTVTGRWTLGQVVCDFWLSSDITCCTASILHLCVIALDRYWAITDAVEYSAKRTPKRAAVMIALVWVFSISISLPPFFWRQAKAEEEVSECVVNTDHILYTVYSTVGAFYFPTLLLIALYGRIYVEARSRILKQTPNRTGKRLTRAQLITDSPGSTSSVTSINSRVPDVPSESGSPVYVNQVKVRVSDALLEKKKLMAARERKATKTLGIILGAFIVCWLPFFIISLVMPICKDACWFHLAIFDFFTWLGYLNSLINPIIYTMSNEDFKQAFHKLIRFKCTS
Experimental: as §1, §2, §3, §4

[1] = tested on: serotonin release in the cortex; settings: after systemic administration; cited from earlier work

Row | melting point | Ki (5-HT1A receptors) | Ki (5-HT1B receptors) | Compound | serotonin release in the cortex [1]
1 | 160 to 162 °C |  |  | CN1CCc2c(sc3ncn(CCN4CCN(c5nc6ccc(Cl)cc6s5)CC4)c(=O)c23)C1 [Example 7, 3-{2-[4-(6-Chloro-1,3-benzothiazol-2-yl)piperazin-1-yl]ethyl}-7-methyl-5,6,7,8-tetrahydropyrido[4′,3′:4,5]thieno[2,3-]pyrimidin-4(3H)-one] | 
2 | 130 to 132 °C |  |  | CN1CCc2c(sc3ncn(CCN4CCN(c5nc6ccccc6o5)CC4)c(=O)c23)C1 [Example 10, 3-{2-[4-(1,3-Benzoxazol-2-yl)piperazin-1-yl]ethyl}-7-methyl-5,6,7,8-tetrahydropyrido[4′,3′:4,5]thieno[2,3-d]pyrimidin-4(3H)-one] | 
3 |  | 11.5 nM | 3.5 nM | CN1CCc2c(sc3ncn(CCN4CCN(c5n[nH]c6ccccc56)CC4)c(=O)c23)C1 [Example 13, 3-{2-[4-(1H-Indazol-3-yl)piperazin-1-yl]ethyl}-7-methyl-5,6,7,8-tetrahydropyrido[4′,3′:4,5]thieno[2,3-d]pyrimidin-4(3H)-one] | 
4 | 88 to 89 °C |  |  | CN1CCc2c(sc3ncn(CCN4CCN(c5nsc6cccc(Cl)c56)CC4)c(=O)c23)C1 [Example 5, 3-{2-[4-(4-Chloro-1,2-benzisothiazol-3-yl)piperazin-1-yl]ethyl}-7-methyl-5,6,7,8-tetrahydropyrido[4′,3′:4,5]thieno[2,3-d]pyrimidin-4(3H)-one] | 
5 | 151 to 153 °C |  |  | CN1CCc2c(sc3ncn(CCN4CCN(c5nc6ccccc6s5)CC4)c(=O)c23)C1 [Example 11, 3-{2-[4-(1,3-Benzothiazol-2-yl)piperazin-1-yl]ethyl}-7-methyl-5,6,7,8-tetrahydropyrido[4′,3′:4,5]thieno[2,3-d]pyrimidin-4(3H)-one] | 
6 |  | 42.7 nM | 24.3 nM | CN1CCc2c(sc3ncn(CCN4CCN(c5snc6ccccc56)CC4)c(=O)c23)C1 [Example 31, 4-(2,1-Benzisothiazol-3-yl)-1-[2-(7-methyl-4-oxo-5,6,7,8-tetrahydropyrido[4′,3′:4,5]thieno[2,3-d]pyrimidin-3(4H)-yl)ethyl]piperazin-1-ium chloride] | 
7 |  | 6.2 nM | 4.5 nM | Cc1ccc2onc(N3CCN(CCn4cnc5sc6c(c5c4=O)CCN(C)C6)CC3)c2c1 [Example 9, 7-Methyl-3-{2-[4-(5-methyl-1,2-benzisoxazol-3-yl)piperazin-1-ium-1-yl]ethyl}-4-oxo-3,4,5,6,7,8-hexahydropyrido[4′,3′:4,5]thieno[2,3-d]spyrimidin-7-ium dichloride] | 
8 |  | 98.3 nM | 286 nM | CN1CCc2c(sc3ncn(CCN4CCC(c5cc(-c6cccs6)[nH]n5)CC4)c(=O)c23)C1 [Example 24, 1-[2-(7-Methyl-4-oxo-5,6,7,8-tetrahydropyrido[4′,3′:4,5]thieno[2,3-d]pyrimidin-3(4H)-yl)ethyl]-4-[5-(2-thienyl)-1 H-pyrazol-3-yl]piperidinium chloride] | 
9 |  |  |  | COc1ccc(NC(=O)c2ccc(-c3ccc(-c4noc(C)n4)cc3C)cc2)cc1N1CCN(C)CC1 [GR 127 935] | reduced
10 |  | 1.3 nM | 2.3 nM | COc1ccc2c(c1)c(C1CCN(CCn3cnc4sc5c(c4c3=O)CCN(C)C5)CC1)cn2C [Example 16, 4-(5-Methoxy-1-methyl-1H-indol-3-yl)-1-[2-(7-methyl-4-oxo-5,6,7,8-tetrahydropyrido[4′,3′:4,5]thieno[2,3-d]pyrimidin-3(4H)-yl)ethyl]piperidinium chloride] | 
11 | 166 to 167 °C |  |  | CN1CCc2c(sc3ncn(CCN4CCN(c5nc6cc(C(F)(F)F)ccc6s5)CC4)c(=O)c23)C1 [Example 6, 7-Methyl-3-(2-{4-[5-(trifluoromethyl)-1,3-benzothiazol-2-yl]piperazin-1-yl}ethyl)-5,6,7,8-tetrahydropyrido[4′,3′:4,5]thieno[2,3-d]pyrimidin-4(3H)-one] | 
12 |  | 13.7 nM | 7.9 nM | COc1ccc2onc(N3CCN(CCn4cnc5sc6c(c5c4=O)CCN(C)C6)CC3)c2c1 [Example 15, 4-(5-Methoxy-1,2-benzisoxazol-3-yl)-1-[2-(7-methyl-4-oxo-5,6,7,8-tetrahydropyrido[4′,3′:4,5]thieno[2,3-d]pyrimidin-3(4H)-yl)ethyl]piperazin-1-ium chloride] | 
13 | 227 to 229 °C |  |  | CN1CCc2c(sc3ncn(CCN4CCN(c5nc6ccccc6[nH]5)CC4)c(=O)c23)C1 [Example 8, 3-{2-[4-(1H-Benzimidazol-2-yl)piperazin-1-yl]ethyl}-7-methyl-5,6,7,8-tetrahydropyrido[4′,3′:4,5]thieno[2,3-d]pyrimidin-4(3H)-one] | 
14 | 82 to 84 °C | 1.4 nM | 0.9 nM | CN1CCc2c(sc3ncn(CCN4CCN(c5nsc6ccccc56)CC4)c(=O)c23)C1 [Example 4, 3-{2-[4-(1,2-Benzisothiazol-3-yl)piperazin-1-yl]ethyl}-7-methyl-5,6,7,8-tetrahydropyrido[4′,3′:4,5]thieno[2,3-d]pyrimidin-4(3H)-one] | 

Row | Compound | melting point | Ki (5-HT1A receptors) | Ki (5-HT1B receptors) | serotonin release in the cortex [1]
15 | CN1CCc2c(sc3ncn(CCN4CC=C(c5csc6ccccc56)CC4)c(=O)c23)C1 [Example 28, 3-{2-[4-(1-Benzothien-3-yl)-3,6-dihydropyridin-1 (2H)-yl]ethyl}-7-methyl-5,6,7,8-tetrahydropyrido[4′,3′:4,5]thieno[2,3-d]pyrimidin-4(3H)-one] |  | 1.3 nM | 2 nM | 
16 | CN1CCc2c(sc3ncn(CCN4CC=C(c5c[nH]c6ccccc56)CC4)c(=O)c23)C1 [Example 20, 3-{2-[4-(1H-Indol-3-yl)-3,6-dihydropyridin-1(2H)-yl]ethyl}-7-methyl-5,6,7,8-tetrahydropyrido[4′,3′:4,5]thieno[2,3-d]pyrimidin-4(3H)-one] |  | 1.2 nM | 1 nM | 
17 | COc1ccc2[nH]cc(C3=CCN(CCn4cnc5sc6c(c5c4=O)CCN(C)C6)CC3)c2c1 [Example 32, 3-{2-[4-(5-methoxy-1H-indol-3-yl)-3,6-dihydropyridin-1(2H)-yl]ethyl}-7-methyl-5,6,7,8,-tetrahydropyrido[4′,3′:4,5]thieno[2,3-d]pyrimidin-4(3H)-one] |  | 0.5 nM | 0.6 nM | 
18 | CN1CCc2c(sc3ncn(CCN4CC=C(c5c[nH]c6ncccc56)CC4)c(=O)c23)C1 [Example 21, 1-[2-(7-Methyl-4-oxo-5,6,7,8-tetrahydropyrido[4′,3′:4,5]thieno[2,3-d]pyrimidin-3(4H)-yl)ethyl]-4-(1H-pyrrolo[2,3-b]pyridin-3-yl)-1,2,3,6-tetrahydropyridinium acetate] |  | 14.6 nM | 1 nM | 
